# Like-named read-outs stand apart in the source and are kept apart here.
# Legend:
# NmNEPS1 = target: T1, NmNEPS1 (Nepeta racemosa, UniProt A0A3Q8GL18); details: NADPH, 5 mM NAD+, pH 8, 30 °C
# T1 construct: gene NEPS1
# NmNEPS4 = target: T2, NmNEPS4 (Nepeta racemosa, UniProt A0A7D3UJX6); test: end-point GC-MS coupled assay; format: biochemical; details: nepetalactol formed in situ with 7S-ISY; NADPH, 5 mM NAD+; pH 8, 30 °C
# T2 construct: pOPINF, His-tagged; E. coli SoluBL21; Ni-NTA purified
# T2 sequence (A0A7D3UJX6 1-274): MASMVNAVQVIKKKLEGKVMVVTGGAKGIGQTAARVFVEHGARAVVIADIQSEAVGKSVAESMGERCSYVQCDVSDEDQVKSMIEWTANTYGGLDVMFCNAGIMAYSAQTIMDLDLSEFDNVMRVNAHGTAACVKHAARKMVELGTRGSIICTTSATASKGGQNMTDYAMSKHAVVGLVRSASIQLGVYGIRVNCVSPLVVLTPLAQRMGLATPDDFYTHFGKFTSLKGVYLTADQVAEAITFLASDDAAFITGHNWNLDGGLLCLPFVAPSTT
# NmNEPS3 [1] = target: T3, NmNEPS3 (Nepeta racemosa, UniProt A0A3Q8GLE8, Q206V); details: nepetalactol formed in situ by the enzyme from ISY product; NADPH, 5 mM NAD+; pH 8, 30 °C
# T3 construct: gene NEPS3
# T3 sequence (A0A3Q8GLE8 whole entry Q206V): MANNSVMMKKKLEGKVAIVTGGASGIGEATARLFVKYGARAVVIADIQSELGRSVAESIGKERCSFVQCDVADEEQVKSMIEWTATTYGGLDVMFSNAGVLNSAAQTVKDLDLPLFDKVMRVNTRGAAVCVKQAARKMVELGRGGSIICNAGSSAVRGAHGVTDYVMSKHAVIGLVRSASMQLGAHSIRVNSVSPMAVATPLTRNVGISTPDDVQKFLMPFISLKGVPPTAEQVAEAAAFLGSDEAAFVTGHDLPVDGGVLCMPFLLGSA
# NcNEPS3A [2] = target: T4, NcNEPS3A (Nepeta cataria, UniProt A0A7D3QLP1, V206Q); test: end-point GC-MS coupled assay; format: biochemical; details: with 7S-ISY and 8-oxogeranial; NADPH, 5 mM NAD+; pH 8, 30 °C
# T4 construct: pOPINF, His-tagged; E. coli SoluBL21; Ni-NTA purified
# T4 sequence (A0A7D3QLP1 entry or part of it V206Q): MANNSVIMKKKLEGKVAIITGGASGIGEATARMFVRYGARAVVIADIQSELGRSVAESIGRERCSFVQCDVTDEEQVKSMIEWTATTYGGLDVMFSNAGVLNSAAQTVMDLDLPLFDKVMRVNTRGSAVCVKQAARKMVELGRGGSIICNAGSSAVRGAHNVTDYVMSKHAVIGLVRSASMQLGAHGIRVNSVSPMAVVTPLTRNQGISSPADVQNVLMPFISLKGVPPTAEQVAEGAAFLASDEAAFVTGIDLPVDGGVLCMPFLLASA
# NcNEPS3A [3] = target: T5, NcNEPS3A (Nepeta cataria, UniProt A0A7D3QLP1); test: end-point GC-MS coupled assay; format: biochemical; details: nepetalactol formed in situ by the enzyme from ISY product; NADPH, 5 mM NAD+; pH 8, 30 °C
# T5 construct: pOPINF, His-tagged; E. coli SoluBL21; Ni-NTA purified
# T5 sequence (A0A7D3QLP1 entry or part of it): as the sequence (A0A7D3QLP1 entry or part of it V206Q) above, with Q206V counted along it
# NmNEPS3 [4] = target: T6, NmNEPS3 (Nepeta racemosa, UniProt A0A3Q8GLE8); details: with 7S-ISY and 8-oxogeranial; pH 8, 30 °C; cyclization of 8-oxocitronellyl enol
# T6 construct: gene NEPS3
# T6 sequence (A0A3Q8GLE8 whole entry): as the sequence (A0A3Q8GLE8 whole entry Q206V) above, with V206Q counted along it
# T1 sequence (A0A3Q8GL18 whole entry): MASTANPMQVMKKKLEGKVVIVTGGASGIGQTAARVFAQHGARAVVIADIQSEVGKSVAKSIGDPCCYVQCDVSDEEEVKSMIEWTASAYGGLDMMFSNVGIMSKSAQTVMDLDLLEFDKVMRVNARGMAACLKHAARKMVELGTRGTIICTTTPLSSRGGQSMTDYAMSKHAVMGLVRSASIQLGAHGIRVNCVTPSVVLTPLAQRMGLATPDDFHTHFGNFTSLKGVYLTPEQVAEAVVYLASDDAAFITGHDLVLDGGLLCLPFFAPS
compound,measurement,setting,value
"CC1=COC(O)[C@H]2[C@@H]1CC[C@@H]2C (stereo partly drawn) [3a, 7S-cis-trans nepetalactol]",end-point GC-MS coupled assay,NmNEPS1; nepetalactol formed in situ with 7S-ISY,NmNEPS1 is able to oxidize both 3c and 7S-cis-trans nepetalactol 3a
same,end-point GC-MS coupled assay,NmNEPS4,NmNEPS4 can only oxidize 3a (Fig. 3A)
"CC1=COC(O)[C@H]2[C@@H](C)CC[C@@H]12 (stereo partly drawn) [3b, 7S-cis-cis nepetalactol]",end-point GC-MS coupled assay,NmNEPS3 [1],NmNEPS3-Q206V mutant has restored oxidation activity
same,end-point GC-MS coupled assay,NcNEPS3A [2],NcNEPS3A-V206Q produces only 3b
same,end-point GC-MS coupled assay,NcNEPS3A [3],only NcNEPS3A can oxidize 7S-cis-cis nepetalactol 3b
same,end-point GC-MS coupled assay,NmNEPS3 [4],"NmNEPS3 (N. mussinii), which produces 7S-cis-cis nepetalactol 3b"
"CC1=COC(O)[C@@H]2[C@@H]1CC[C@@H]2C (stereo partly drawn) [3c, 7S-trans-cis nepetalactol]",end-point GC-MS coupled assay,NmNEPS1; nepetalactol formed in situ with 7S-ISY and cyclase,NmNEPS1 is able to oxidize both 3c and 7S-cis-trans nepetalactol 3a

# From paper PMC9372074, “Biocatalytic routes to stereo-divergent iridoids” (Nature Communications, 2022)
